Measurements published in article PMC7645381, “Development and application of a high-throughput screening assay for identification of small molecule inhibitors of the P. falciparum reticulocyte binding-like homologue 5 protein” (International Journal for Parasitology: Drugs and Drug …, 2020).

Tests used:
DCLK1 = target: T1, DCLK1 (Homo sapiens, UniProt O15075); assay: Differential scanning fluorimetry of control protein DCLK1; assay type: binding; conditions: DSF
T1 construct: made in house
T1 sequence (O15075 372-649 limits assumed): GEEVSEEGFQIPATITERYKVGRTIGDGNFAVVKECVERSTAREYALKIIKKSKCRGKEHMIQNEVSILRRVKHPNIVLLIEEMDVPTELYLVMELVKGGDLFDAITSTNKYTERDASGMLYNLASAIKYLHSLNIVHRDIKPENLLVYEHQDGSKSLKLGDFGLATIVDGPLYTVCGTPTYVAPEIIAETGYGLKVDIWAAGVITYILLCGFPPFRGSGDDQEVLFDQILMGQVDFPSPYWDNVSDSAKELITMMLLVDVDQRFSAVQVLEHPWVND
Description: Doublecortin-like kinase domain 1 (DCLK1) used as a control protein in differential scanning fluorimetry experiments and was recombinantly expressed and purified according to the previously described protocol ([Patel et al., 2016]).
(§1) Differential scanning fluorimetry assays were performed as described previously ([Murphy et al., 2013], [2014a], [2014b]) using a Rotor-Gene Q PCR. Briefly, purified PfRh5 was diluted in 20 mM Tris pH 8.0, 150 mM NaCl to achieve 10 μg per reaction and assayed with the appropriate concentration of inhibitor in a total reaction volume of 25 μL. SYPRO Orange (Molecular Probes, CA) was used as a fluorescence probe and detected at 530 nm. Compounds were titrated at final concentrations ranging from 5 μM to 80 μM final. Data was transformed and plotted using GraphPad Prism. Shown data are representative means of two technical experiments.

D10-PfPHG parasites = assay: Schizont rupture assay; assay type: cell-based, P. falciparum
Description: D10-PfPHG parasites ([Wilson et al., 2010]) were cultured in human O^+ erythrocytes in RPMI-HEPES culture medium (pH 7.4, 50 μg/mL hypoxanthine, 25 mM NaHCO3, 20 μg/mL gentamicin, 0.5% Albumax II (Thermo Fisher Scientific) according to established protocols ([Trager and Jensen, 1976]) and maintained in an atmosphere of 1% O2, 4% CO2 and 95% N2. For assessment of merozoite invasion after schizont rupture, parasites were tightly synchronised to a 4 h window of invasion using heparin ([Boyle et al., 2010]; [Wilson et al., 2015]) and then grown for a further 42 h. Drug treatments were setup at 2–3% parasitaemia and 1% haematocrit in 50 μL volumes with a 1 in 10 dilution of drug added when parasites were 44–48 h post invasion. After 6 h of drug treatment and immediately after invasion was expected to finish, the assays were treated with 5 μg/mL ethidium bromide (EtBr, Bio-Rad) for 5 min prior to flow cytometry assessment of parasitaemia using a Becton Dickinson Accuri. Gating of newly invaded rings, free merozoites and unruptured late stages was achieved as per published methods ([Wilson et al., 2013]).
To determine if the modest activity of pranlukast and analogues in the parasite viability assay was a consequence of invasion inhibition, rather than inhibition at another stage of blood stage parasite development, we performed an assay that measures the effect of compound treatment on P. falciparum D10 asexual stage transition between late schizont and ring stages ([Wilson et al., 2013]). In this assay, highly synchronised mature schizont-stage parasites were incubated with pranlukast and selected analogues at 50 and 100 μM and the transition to newly invaded ring stage parasites was quantified by flow cytometry. In parallel, the rate of schizont rupture and merozoite release was quantified to assess whether any reduction in newly invaded ring stages was due to a block affecting merozoite release or development. […] Neither DMSO (at the maximal concentration used for the drug treatments of 0.1%) or a non-invasion inhibitory mAb control caused a reduction in merozoite invasion. […] […].

[1] = target: P. falciparum Rh5 (Rh5 – basigin interaction) (Plasmodium falciparum, UniProt Q8IFM5); assay: biochemical; assay type: binding
Sequence of P. falciparum Rh5 (Rh5 – basigin interaction) (Q8IFM5 24-526): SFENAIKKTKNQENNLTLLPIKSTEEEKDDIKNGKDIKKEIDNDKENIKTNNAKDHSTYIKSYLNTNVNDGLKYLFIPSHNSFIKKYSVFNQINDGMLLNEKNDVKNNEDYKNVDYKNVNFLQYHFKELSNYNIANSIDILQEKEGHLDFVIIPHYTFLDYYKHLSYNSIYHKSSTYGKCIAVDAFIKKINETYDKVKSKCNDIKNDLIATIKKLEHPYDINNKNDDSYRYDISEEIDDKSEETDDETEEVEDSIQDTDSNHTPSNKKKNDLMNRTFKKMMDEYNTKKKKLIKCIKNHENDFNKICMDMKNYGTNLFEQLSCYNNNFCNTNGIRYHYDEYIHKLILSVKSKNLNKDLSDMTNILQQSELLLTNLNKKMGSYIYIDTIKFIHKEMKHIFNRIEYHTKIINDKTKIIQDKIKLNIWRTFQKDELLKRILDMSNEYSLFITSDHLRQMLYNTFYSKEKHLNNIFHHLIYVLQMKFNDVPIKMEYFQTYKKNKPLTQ

P. falciparum D10 = P. falciparum D10 growth inhibition by flow cytometry; assay type: cell-based; conditions: Plasmodium falciparum, D10; growth inhibition by flow cytometry, 12-point dilution series, 72 h
Description: Pranlukast and selected analogues were then evaluated in a P. falciparum parasite viability assay. For this assay, we followed the procedure described by [Gamo et al. (2010)], that used lactate dehydrogenase (LDH) as a readout for parasite viability. In this assay, 3D7 parasites were incubated over 72 h in the presence of increasing concentrations of compounds. […]. For a comparison, selected compounds were incubated in the presence of P. falciparum D10 parasites for 72 h (Table 1, Fig. S14) and growth inhibition measured by flow cytometry. […].

PfRh5 = PfRh5 (Plasmodium falciparum, UniProt Q8IFM5); assay: Differential scanning fluorimetry of Rh5; assay type: binding, P. falciparum; conditions: DSF
Sequence of PfRh5 (Q8IFM5 24-526): as above
Description: as §1

SMILES: O=C(Nc1cccc2c(=O)cc(-c3nnn[nH]3)oc12)c1ccc(OCCCCc2ccccc2)cc1 [pranlukast]
- effect on Tm of DCLK1 (DCLK1; concentration up to 20 μM): did not have a significant impact on the Tm of DCLK1
- effect on Tm of DCLK1 (DCLK1; high concentration (>40 μM)): markedly lower Tm
- merozoite invasion (newly invaded early ring stages) (D10-PfPHG parasites; 50 and 100 μM, 6 h, flow cytometry): substantial reduction in the numbers of merozoites that had invaded and formed early ring stages
- free merozoite numbers (D10-PfPHG parasites; lowest concentration tested (50 μM)): minimal loss in free merozoite numbers
- IC50 [1]: 12 µM
- EC50 (P. falciparum D10): 28 µM
- effect on Tm of Rh5 (PfRh5; concentrations of 0–20 μM): dose dependent increase in the Tm of Rh5
- effect on Tm of Rh5 (PfRh5; high concentration (>40 μM)): markedly lower Tm
